Read-outs that look alike come from different tables or passages of the source. Each block holds one molecule with its values, some of them ahead of it.
Experiments:
Test in all cases: biochemical
CLK1 = CLK1 (Homo sapiens, UniProt P49759)
HIPK2 = HIPK2 (Homo sapiens, UniProt Q9H2X6)
DCAMKL1 = biological target: T1, DCAMKL1 (Homo sapiens, UniProt O15075)
T1 sequence (O15075 1-740): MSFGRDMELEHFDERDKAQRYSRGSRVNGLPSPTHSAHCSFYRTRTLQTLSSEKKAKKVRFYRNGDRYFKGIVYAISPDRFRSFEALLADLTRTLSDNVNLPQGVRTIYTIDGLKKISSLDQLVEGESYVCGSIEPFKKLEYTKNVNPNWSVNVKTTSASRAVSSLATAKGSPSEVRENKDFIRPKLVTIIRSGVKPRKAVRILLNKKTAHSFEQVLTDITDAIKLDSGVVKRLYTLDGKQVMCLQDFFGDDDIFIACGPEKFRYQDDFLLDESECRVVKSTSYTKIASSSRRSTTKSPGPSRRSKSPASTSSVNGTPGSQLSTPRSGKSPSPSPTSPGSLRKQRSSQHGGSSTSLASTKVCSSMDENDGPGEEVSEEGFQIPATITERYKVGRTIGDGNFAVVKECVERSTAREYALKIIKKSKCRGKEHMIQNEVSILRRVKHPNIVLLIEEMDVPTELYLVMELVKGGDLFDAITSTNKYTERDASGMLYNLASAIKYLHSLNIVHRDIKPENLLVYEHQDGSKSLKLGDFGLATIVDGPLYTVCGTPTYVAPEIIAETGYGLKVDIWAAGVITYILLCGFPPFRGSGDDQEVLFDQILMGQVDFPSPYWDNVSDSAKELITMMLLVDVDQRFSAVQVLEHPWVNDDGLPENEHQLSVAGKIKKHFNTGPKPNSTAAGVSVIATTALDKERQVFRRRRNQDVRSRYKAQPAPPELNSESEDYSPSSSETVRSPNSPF

PIM3 = PIM3 (Homo sapiens, UniProt Q86V86)
DRAK1 = biological target: T2, DRAK1 (Homo sapiens, UniProt Q9UEE5)
T2 sequence (Q9UEE5 1-414): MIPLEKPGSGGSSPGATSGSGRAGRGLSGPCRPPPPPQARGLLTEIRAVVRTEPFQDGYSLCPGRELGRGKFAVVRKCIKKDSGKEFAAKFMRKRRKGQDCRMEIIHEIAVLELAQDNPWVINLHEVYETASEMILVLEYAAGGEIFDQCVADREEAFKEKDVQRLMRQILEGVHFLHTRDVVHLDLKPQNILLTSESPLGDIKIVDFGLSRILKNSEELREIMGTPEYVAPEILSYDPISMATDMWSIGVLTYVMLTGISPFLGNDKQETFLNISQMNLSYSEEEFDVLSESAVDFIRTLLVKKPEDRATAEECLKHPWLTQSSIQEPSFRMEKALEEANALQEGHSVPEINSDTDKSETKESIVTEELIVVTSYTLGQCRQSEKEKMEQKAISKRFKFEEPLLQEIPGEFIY

NEK2 = biological target: T3, NEK2 (Homo sapiens, UniProt P51955)
T3 sequence (P51955 1-445): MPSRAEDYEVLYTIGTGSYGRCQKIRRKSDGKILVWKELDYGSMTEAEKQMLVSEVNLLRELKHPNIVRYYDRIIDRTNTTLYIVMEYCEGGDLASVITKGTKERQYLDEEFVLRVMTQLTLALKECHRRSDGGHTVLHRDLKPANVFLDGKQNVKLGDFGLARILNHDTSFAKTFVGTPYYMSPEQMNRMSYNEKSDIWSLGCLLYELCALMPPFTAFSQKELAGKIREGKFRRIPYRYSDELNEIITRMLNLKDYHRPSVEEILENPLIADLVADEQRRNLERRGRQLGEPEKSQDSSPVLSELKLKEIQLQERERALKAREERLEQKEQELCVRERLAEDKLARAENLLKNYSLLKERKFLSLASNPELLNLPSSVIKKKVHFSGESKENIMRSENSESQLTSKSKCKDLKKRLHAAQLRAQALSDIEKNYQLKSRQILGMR

RSK1b = RSK1b (Homo sapiens, UniProt Q15418)
Chain of RSK1b (Q15418 whole entry): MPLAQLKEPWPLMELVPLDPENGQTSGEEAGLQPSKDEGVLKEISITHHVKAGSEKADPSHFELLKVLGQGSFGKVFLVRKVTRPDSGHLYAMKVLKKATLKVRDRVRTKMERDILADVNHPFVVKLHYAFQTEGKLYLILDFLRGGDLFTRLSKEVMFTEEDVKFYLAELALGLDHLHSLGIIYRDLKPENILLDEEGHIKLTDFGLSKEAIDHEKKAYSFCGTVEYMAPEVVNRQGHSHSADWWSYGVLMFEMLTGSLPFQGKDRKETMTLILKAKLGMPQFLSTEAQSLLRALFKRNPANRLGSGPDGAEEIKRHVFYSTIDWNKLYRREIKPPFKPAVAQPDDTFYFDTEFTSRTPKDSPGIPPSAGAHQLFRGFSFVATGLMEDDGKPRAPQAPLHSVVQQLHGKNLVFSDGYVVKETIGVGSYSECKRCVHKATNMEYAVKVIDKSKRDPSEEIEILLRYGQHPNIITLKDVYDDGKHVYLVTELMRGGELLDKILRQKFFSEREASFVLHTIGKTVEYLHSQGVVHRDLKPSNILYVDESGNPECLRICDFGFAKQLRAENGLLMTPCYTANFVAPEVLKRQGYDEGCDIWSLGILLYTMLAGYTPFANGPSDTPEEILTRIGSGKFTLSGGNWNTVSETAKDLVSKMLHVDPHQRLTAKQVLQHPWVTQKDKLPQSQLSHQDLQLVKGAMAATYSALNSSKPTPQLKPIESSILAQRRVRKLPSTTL

TLK1 = biological target: T4, TLK1 (Homo sapiens, UniProt Q9UKI8)
T4 sequence (Q9UKI8 1-766): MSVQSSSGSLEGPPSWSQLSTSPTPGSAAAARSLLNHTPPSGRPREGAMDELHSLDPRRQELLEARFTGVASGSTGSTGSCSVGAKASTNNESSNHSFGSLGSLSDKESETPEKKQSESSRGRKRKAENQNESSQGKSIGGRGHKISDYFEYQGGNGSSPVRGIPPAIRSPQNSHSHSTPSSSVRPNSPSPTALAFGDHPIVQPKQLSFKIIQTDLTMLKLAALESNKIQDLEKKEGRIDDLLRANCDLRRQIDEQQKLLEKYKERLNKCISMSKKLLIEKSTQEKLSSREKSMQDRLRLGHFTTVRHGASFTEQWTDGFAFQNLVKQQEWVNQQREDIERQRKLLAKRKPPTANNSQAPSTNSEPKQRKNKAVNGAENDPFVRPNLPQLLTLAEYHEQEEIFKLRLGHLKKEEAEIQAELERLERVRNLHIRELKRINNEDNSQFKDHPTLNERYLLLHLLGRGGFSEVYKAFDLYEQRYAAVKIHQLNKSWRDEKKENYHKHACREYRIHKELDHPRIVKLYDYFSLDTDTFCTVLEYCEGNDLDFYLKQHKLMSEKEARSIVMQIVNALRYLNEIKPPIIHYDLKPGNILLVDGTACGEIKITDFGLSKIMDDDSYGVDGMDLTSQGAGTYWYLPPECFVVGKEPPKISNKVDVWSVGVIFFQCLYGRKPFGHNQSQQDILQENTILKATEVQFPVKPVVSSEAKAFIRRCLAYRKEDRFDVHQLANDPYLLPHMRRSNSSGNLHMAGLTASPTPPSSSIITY

Chain of HIPK2 (Q9H2X6 whole entry): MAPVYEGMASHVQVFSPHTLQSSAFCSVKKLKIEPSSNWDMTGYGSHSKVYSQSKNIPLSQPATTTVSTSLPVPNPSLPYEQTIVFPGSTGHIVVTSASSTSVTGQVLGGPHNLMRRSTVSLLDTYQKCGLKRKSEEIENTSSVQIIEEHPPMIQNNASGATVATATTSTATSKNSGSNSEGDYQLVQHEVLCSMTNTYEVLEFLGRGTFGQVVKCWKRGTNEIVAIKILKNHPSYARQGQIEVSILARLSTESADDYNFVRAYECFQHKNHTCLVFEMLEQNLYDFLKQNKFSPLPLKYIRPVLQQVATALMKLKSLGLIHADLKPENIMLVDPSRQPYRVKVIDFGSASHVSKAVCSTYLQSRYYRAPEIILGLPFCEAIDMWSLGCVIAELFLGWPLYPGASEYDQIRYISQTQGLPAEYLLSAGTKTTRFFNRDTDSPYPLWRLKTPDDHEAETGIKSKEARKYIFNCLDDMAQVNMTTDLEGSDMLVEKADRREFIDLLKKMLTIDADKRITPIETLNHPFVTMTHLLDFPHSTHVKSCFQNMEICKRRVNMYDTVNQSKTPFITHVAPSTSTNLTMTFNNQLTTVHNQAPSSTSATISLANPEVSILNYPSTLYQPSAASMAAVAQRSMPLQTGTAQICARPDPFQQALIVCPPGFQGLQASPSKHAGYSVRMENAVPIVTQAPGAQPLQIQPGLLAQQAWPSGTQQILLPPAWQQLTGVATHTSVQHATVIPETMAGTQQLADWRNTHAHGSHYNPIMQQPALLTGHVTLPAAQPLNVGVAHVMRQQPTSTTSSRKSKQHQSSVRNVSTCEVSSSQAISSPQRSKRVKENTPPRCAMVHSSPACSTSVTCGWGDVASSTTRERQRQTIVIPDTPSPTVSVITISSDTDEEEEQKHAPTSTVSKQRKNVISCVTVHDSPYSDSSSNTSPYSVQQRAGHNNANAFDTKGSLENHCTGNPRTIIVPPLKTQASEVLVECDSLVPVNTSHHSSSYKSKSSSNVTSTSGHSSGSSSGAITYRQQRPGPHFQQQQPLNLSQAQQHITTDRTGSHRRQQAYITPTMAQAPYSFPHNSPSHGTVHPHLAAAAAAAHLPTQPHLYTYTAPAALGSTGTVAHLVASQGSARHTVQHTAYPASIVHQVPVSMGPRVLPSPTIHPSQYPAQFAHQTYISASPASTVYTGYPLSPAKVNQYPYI
Chain of CLK1 (P49759 whole entry): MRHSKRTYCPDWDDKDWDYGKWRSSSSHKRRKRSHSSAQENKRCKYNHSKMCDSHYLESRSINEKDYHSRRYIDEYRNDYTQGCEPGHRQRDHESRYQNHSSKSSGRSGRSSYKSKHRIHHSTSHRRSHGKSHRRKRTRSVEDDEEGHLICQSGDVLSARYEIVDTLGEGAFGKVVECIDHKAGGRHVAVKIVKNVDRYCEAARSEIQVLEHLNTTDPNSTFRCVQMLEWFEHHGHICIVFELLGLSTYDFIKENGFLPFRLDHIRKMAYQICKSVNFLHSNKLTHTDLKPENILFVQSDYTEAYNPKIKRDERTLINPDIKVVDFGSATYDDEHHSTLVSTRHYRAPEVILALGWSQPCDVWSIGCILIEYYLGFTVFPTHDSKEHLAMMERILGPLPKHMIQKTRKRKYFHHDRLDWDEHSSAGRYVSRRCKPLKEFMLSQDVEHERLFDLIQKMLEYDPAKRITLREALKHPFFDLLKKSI

SMILES: CNc1ncc2cc(-c3cc(C(F)(F)F)ccc3Cl)c(=O)n(CCCCN)c2n1 [compound 9, 8-(4-Aminobutyl)-6-(2-chloro-5-(trifluoromethyl)phenyl)-2-(methylamino)pyrido[2,3-d]pyrimidin-7(8H)-one]
ΔTm at 10 µM (CLK1; read-out: dTm 9): 0.4 °C
ΔTm at 10 µM (HIPK2; read-out: dTm 9): 0.7 °C
ΔTm at 10 µM (DCAMKL1; read-out: dTm 9): 0.5 °C
ΔTm at 10 µM (PIM3; read-out: dTm 9): 0.4 °C
ΔTm at 10 µM (DRAK1; read-out: dTm 9): -1.1 °C
ΔTm at 10 µM (NEK2; read-out: dTm 9): 1.3 °C
ΔTm at 10 µM (RSK1b; read-out: dTm 9): 4.5 °C
ΔTm at 10 µM (TLK1; read-out: dTm 9): 0.7 °C

SMILES: CNc1ncc2cc(-c3cc(Br)ccc3Br)c(=O)n(CCCCN)c2n1 [compound 11, 8-(4-Aminobutyl)-6-(2,5-dibromophenyl)-2-(methylamino)pyrido[2,3-d]pyrimidin-7(8H)-one]
ΔTm at 10 µM (CLK1; read-out: dTm 11): 0.4 °C
ΔTm at 10 µM (HIPK2; read-out: dTm 11): 0.8 °C
ΔTm at 10 µM (DCAMKL1; read-out: dTm 11): 1.1 °C
ΔTm at 10 µM (PIM3; read-out: dTm 11): 0.9 °C
ΔTm at 10 µM (DRAK1; read-out: dTm 11): -0.8 °C
ΔTm at 10 µM (NEK2; read-out: dTm 11): 1.7 °C
ΔTm at 10 µM (RSK1b; read-out: dTm 11): 5.8 °C
ΔTm at 10 µM (TLK1; read-out: dTm 11): 1 °C

SMILES: CNc1ncc2cc(-c3cc(Cl)ccc3Cl)c(=O)n(CCCCN)c2n1 [compound 8, 8-(4-Aminobutyl)-6-(2,5-dichlorophenyl)-2-(methylamino)pyrido[2,3-d]pyrimidin-7(8H)-one]
ΔTm at 10 µM (CLK1; read-out: dTm 8): 0.6 °C
ΔTm at 10 µM (HIPK2; read-out: dTm 8): 0.7 °C
ΔTm at 10 µM (DCAMKL1; read-out: dTm 8): 1.2 °C
ΔTm at 10 µM (PIM3; read-out: dTm 8): 1 °C
ΔTm at 10 µM (DRAK1; read-out: dTm 8): 1.1 °C
ΔTm at 10 µM (NEK2; read-out: dTm 8): 1.9 °C
ΔTm at 10 µM (RSK1b; read-out: dTm 8): 6.9 °C
ΔTm at 10 µM (TLK1; read-out: dTm 8): 1 °C

Results, then the molecule that gave them:

ΔTm at 10 µM (CLK1; read-out: dTm 12): -0.1 °C
ΔTm at 10 µM (HIPK2; read-out: dTm 12): 0.4 °C
ΔTm at 10 µM (DCAMKL1; read-out: dTm 12): -1.6 °C
ΔTm at 10 µM (PIM3; read-out: dTm 12): -1.2 °C
ΔTm at 10 µM (DRAK1; read-out: dTm 12): 0 °C
ΔTm at 10 µM (NEK2; read-out: dTm 12): 7.2 °C
ΔTm at 10 µM (RSK1b; read-out: dTm 12): -0.2 °C
ΔTm at 10 µM (TLK1; read-out: dTm 12): -1.5 °C
SMILES: CNc1ncc2cc(-c3cc(F)c(-c4cccc(C)n4)cc3F)c(=O)n(CCCCN)c2n1 [compound 12, 8-(4-Aminobutyl)-6-(2,5-difluoro-4-(6-methylpyridin-2-yl)phenyl)-2-(methylamino)pyrido[2,3-d]pyrimidin-7(8H)-one]

ΔTm at 10 µM (CLK1; read-out: dTm 10): 0.4 °C
ΔTm at 10 µM (HIPK2; read-out: dTm 10): 0.8 °C
ΔTm at 10 µM (DCAMKL1; read-out: dTm 10): 0.9 °C
ΔTm at 10 µM (PIM3; read-out: dTm 10): 0.8 °C
ΔTm at 10 µM (DRAK1; read-out: dTm 10): -0.8 °C
ΔTm at 10 µM (NEK2; read-out: dTm 10): 2.1 °C
ΔTm at 10 µM (RSK1b; read-out: dTm 10): 6.2 °C
ΔTm at 10 µM (TLK1; read-out: dTm 10): 0.5 °C
SMILES: CNc1ncc2cc(-c3cc(Cl)ccc3Br)c(=O)n(CCCCN)c2n1 [compound 10, 8-(4-Aminobutyl)-6-(2-bromo-5-chlorophenyl)-2-(methylamino)pyrido[2,3-d]pyrimidin-7(8H)-one]

Reference: doi:10.1101/2023.03.24.534094v2 (biorxiv, 2023)
